Source: ChEMBL document CHEMBL5038591, “Identification of a Novel TAR RNA-Binding Protein 2 Modulator with Potential Therapeutic Activity against Hepatocellular Carcinoma” (J Med Chem, 2021)
Active and inactive are the calls of the source. No cut-off for these calls is given here.

Legend:
[1] = Antiproliferative activity against human QSG7701 cells incubated for 24 hrs by alamar blue assay; format: functional, cell-based; conditions: QSG7701, 24 h
SK-HEP1 [2] = assay: Antiproliferative activity against human SK-HEP1 cells incubated for 24 hrs by alamar blue assay; format: functional, cell-based; conditions: SK-HEP1, 24 h
HeLa [3] = assay: Antiproliferative activity against human HeLa cells at 20 uM incubated for 24 hrs by alamar blue assay; format: functional, cell-based
SK-HEP1 [4] = assay: Antiproliferative activity against human SK-HEP1 cells at 20 uM incubated for 24 hrs by alamar blue assay; format: functional, cell-based
Huh-7 = assay: Antiproliferative activity against human Huh-7 cells at 20 uM incubated for 24 hrs by alamar blue assay; format: functional, cell-based
HeLa [5] = assay: Antiproliferative activity against human HeLa cells assessed as increase in miR-21 biogenesis level measured after 24 hrs by luciferase assay; format: functional, cell-based
MHCC97 [6] = assay: Antiproliferative activity against human MHCC97 cells at 20 uM incubated for 24 hrs by alamar blue assay; format: functional, cell-based
HepG2 = assay: Antiproliferative activity against human HepG2 cells at 20 uM incubated for 24 hrs by alamar blue assay; format: functional, cell-based
SK-HEP1 [7] = assay: Inhibition of cell migration in human SK-HEP1 cells assessed as reduction in cell migration at 20 uM measured after 12 hrs using crystal violet staining inverted microscope based transwell assay; format: functional
SK-HEP1 [8] = assay: Antiproliferative activity against human SK-HEP1 cells at 20 uM measured by crystal violet dye based colony formation assay; format: functional, cell-based
MHCC97 [9] = assay: Antimetastatic activity against human MHCC97 cells xenografted in SCID mouse assessed as decrease in liver metastasis at 40 mg/kg, ip administered once every 3 days and measured after 10 days; format: functional, organism-based; conditions: time 10.0 day
MHCC97 [10] = assay: Antitumor activity against human MHCC97 cells xenografted in SCID mouse assessed as decrease in tumor size at 20 mg/kg, ip administered once every 3 days and measured after 10 days; format: functional, organism-based; conditions: time 10.0 day
MHCC97 [11] = assay: Antitumor activity in human MHCC97 cells xenografted in SCID mouse assessed as reduction in infiltration of inflammatory cells in left middle lobe of liver at 20 mg/kg, ip measured after 30 days by H and E staining based immunohistochemical analysis; format: functional, organism-based; conditions: time 30.0 day
MHCC97 [12] = assay: Antitumor activity in human MHCC97 cells xenografted in SCID mouse assessed as suppression of tumor growth at 20 mg/kg, ip administered once every 3 day for 30 days by bioluminescence analysis; format: functional, organism-based; conditions: time 30.0 day
[13] = Toxicity in SCID mouse xenografted with human MHCC97 cells assessed as increase in body weight at 40 mg/kg, ip administered once every 3 day for 30 days; format: organism-based; conditions: in vivo, 720 h, time 30 day
[14] = molecular target: DNA topoisomerase 2-beta (Homo sapiens) (UniProt Q02880); assay: Binding affinity to TOP2B (unknown origin) at 30 uM incubated for 2 hrs by pull down assay
Sequence of DNA topoisomerase 2-beta (Homo sapiens) (Q02880 whole entry): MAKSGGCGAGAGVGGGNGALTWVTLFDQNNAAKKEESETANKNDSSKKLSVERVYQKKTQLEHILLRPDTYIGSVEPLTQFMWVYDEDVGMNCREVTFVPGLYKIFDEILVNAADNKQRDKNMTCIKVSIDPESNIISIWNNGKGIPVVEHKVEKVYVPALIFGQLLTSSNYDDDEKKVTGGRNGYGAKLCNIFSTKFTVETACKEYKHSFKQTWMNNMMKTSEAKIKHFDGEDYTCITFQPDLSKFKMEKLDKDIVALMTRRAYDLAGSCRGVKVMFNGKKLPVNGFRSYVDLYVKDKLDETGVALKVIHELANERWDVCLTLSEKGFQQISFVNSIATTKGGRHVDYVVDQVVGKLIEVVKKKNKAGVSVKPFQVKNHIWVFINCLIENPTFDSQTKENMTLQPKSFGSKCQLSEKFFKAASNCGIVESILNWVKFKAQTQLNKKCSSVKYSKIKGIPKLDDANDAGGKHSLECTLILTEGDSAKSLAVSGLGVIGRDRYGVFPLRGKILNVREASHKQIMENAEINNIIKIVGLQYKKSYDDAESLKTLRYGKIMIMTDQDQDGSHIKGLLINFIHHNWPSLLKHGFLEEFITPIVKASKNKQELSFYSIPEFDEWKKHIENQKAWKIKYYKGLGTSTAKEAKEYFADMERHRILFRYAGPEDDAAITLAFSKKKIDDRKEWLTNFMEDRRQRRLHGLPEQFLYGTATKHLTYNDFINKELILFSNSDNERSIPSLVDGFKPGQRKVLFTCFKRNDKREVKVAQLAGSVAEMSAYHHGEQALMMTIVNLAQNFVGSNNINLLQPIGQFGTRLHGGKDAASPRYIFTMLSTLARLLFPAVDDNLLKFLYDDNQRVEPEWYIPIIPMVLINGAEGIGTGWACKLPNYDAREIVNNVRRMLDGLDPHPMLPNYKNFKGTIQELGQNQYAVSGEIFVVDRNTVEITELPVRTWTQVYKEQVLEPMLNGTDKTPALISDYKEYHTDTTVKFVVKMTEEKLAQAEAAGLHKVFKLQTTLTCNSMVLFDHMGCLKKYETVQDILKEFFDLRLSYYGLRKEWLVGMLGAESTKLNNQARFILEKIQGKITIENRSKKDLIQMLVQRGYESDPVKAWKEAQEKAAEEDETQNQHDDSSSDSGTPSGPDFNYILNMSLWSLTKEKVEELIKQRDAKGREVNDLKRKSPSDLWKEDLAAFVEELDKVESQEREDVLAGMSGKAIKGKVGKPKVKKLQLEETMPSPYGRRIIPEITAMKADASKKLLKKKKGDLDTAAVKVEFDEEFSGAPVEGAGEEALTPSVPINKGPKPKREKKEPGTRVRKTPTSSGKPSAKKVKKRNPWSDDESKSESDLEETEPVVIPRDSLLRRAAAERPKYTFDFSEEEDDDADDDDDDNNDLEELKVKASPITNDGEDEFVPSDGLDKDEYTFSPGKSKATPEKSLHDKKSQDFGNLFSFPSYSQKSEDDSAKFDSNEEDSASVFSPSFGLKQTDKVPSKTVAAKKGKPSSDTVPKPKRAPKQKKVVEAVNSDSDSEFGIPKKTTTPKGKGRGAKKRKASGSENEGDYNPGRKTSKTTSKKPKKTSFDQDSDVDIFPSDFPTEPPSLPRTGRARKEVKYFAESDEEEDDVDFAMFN

Homo sapiens = species: Homo sapiens; assay: Binding affinity to PIWIL3 (unknown origin) at 30 uM incubated for 2 hrs by pull down assay
SK-HEP1 [15] = assay: Antiproliferative activity against human SK-HEP1 cells assessed as increase in miR-106b-5p level at 20 uM by qRT-PCR analysis; format: functional, cell-based
MHCC97 [16] = assay: Antimetastatic activity against human MHCC97 cells xenografted in SCID mouse assessed as decrease in liver metastasis at 20 mg/kg, ip administered once every 3 days and measured after 10 days; format: functional, organism-based; conditions: time 10.0 day
SK-HEP1 [17] = assay: Antiproliferative activity against human SK-HEP1 cells assessed as increase in miR-22-5p level at 20 uM by qRT-PCR analysis; format: functional, cell-based
SK-HEP1 [18] = assay: Antiproliferative activity against human SK-HEP1 cells assessed as increase in miR-26a-5p level at 20 uM by qRT-PCR analysis; format: functional, cell-based
SK-HEP1 [19] = assay: Antiproliferative activity against human SK-HEP1 cells assessed as decrease in miR-30a-5p level at 20 uM by qRT-PCR analysis; format: functional, cell-based
SK-HEP1 [20] = assay: Antiproliferative activity against human SK-HEP1 cells assessed as increase in miR-21-5p level at 20 uM by qRT-PCR analysis; format: functional, cell-based
SK-HEP1 [21] = assay: Antiproliferative activity against human SK-HEP1 cells assessed as decrease in miR135a-5p level at 20 uM by qRT-PCR analysis; format: functional, cell-based

| SMILES | IC50 [1] [µM] | IC50 (SK-HEP1 [2]) [µM] | also measured |
| --- | --- | --- | --- |
| COC(=O)c1cc2c(c(OC)c1-c1ccc(N(C)S(C)(=O)=O)cc1)OCO2 | 75.9 | 47 | – |
| COC(=O)c1cc2c(c(OC)c1-c1ccc(N(C)C(=O)c3ccccc3)cc1)OCO2 | 48.4 | 19.4 | Activity (HeLa [3]): Active; Activity (SK-HEP1 [4]): Active; Activity (Huh-7): Active; IC50 (HeLa [5]): 13 µM; Activity (MHCC97 [6]): Active; Activity (HepG2): Active |
| COc1c2c(cc(C(=O)NCc3ccccc3)c1-c1ccc(N(C)C)cc1)OCO2 | 56.4 | 23.6 | IC50 (HeLa [5]): 21.9 µM |
| COc1c2c(cc(C(=O)Nc3ccccc3)c1-c1ccc(N(C)C)cc1)OCO2 | 58.5 | 38.4 | – |
| COC(=O)c1cc2c(c(OC)c1-c1ccc(N(C)S(=O)(=O)c3ccc(F)cc3)cc1)OCO2 | 67.9 | 31.7 | – |
| COc1cccc(NC(=O)c2cc3c(c(OC)c2-c2ccc(N(C)C)cc2)OCO3)c1 | 64.4 | 31.6 | – |
| COC(=O)c1cc2c(c(OC)c1-c1ccc(N(C)C(=O)CN(C)C(=O)OC(C)(C)C)cc1)OCO2 | > 100 | 89.7 | – |
| COC(=O)c1cc2c(c(OC)c1-c1ccc(N(C)S(=O)(=O)c3ccc(Br)cc3)cc1)OCO2 | 62.4 | 28.7 | – |
| CNc1ccc(-c2c(C(=O)OC)cc3c(c2OC)OCO3)cc1 | 67.2 | 24.4 | IC50 (HeLa [5]): 15.6 µM; inhibition (SK-HEP1 [7]): Active; Activity (SK-HEP1 [8]): Active |
| CNC(=O)c1cc(Oc2ccc(NC(=O)Nc3ccc(Cl)c(C(F)(F)F)c3)cc2)ccn1 [SORAFENIB] | – | – | Activity (MHCC97 [9]): Active; Activity (MHCC97 [10]): Active; Activity (MHCC97 [11]): Active; Activity (MHCC97 [12]): Active; Activity [13]: Toxic |
| CNc1ccc(-c2c(C(=O)OC)cc3c(c2OC)OCO3)cc1Cl | 50.3 | 22.7 | – |
| COC(=O)c1cc2c(c(OC)c1-c1ccc(N(C)C)cc1)OCO2 | 68.5 | 29.9 | – |
| CCN(CC)CCNC(=O)c1cc2c(c(OC)c1-c1ccc(N(C)C)cc1)OCO2 | > 100 | > 100 | – |
| COC(=O)c1cc2c(c(OC)c1-c1ccc(N(C)S(=O)(=O)c3ccccc3)cc1)OCO2 | 61.4 | 26.7 | IC50 (HeLa [5]): 19.5 µM |
| COC(=O)c1cc2c(c(OC)c1-c1ccc(N(C)C(=O)CN)cc1)OCO2 | > 100 | > 100 | – |
| COc1c2c(cc(C(=O)Nc3ccccc3I)c1-c1ccc(N(C)C)cc1)OCO2 | 56.9 | 35.8 | – |
| CNCC(=O)N(C)c1ccc(-c2c(C(=O)OC)cc3c(c2OC)OCO3)cc1 | > 100 | > 100 | – |
| COC(=O)c1cc2c(c(OC)c1-c1ccc(N(C)C(=O)[C@H](C)NC(=O)OC(C)(C)C)cc1)OCO2 | 59.5 | 40.9 | – |
| COC(=O)c1cc2c(c(OC)c1-c1ccc(N(C)C(=O)CCCCCNC(=O)CCCC[C@@H]3SC[C@@H]4NC(=O)N[C@@H]43)cc1)OCO2 | – | – | Activity [14]: inactive; Activity (Homo sapiens): inactive; inhibition (SK-HEP1 [7]): Active; Activity (SK-HEP1 [8]): Active |
| CCn1cc(C(=O)O)c(=O)c2cc(F)c(N3CCNCC3)nc21 [ENOXACIN] | 72.4 | 25 | Activity (MHCC97 [10]): Active; Activity (SK-HEP1 [15]): Active; Activity (MHCC97 [16]): inactive; Activity (SK-HEP1 [17]): Active; Activity (MHCC97 [11]): Active; IC50 (HeLa [5]): 25.8 µM; Activity (SK-HEP1 [18]): Active; Activity (MHCC97 [12]): Active; Activity (SK-HEP1 [19]): inactive; Activity (SK-HEP1 [20]): Active; Activity (SK-HEP1 [21]): inactive |
| COC(=O)c1cc2c(c(OC)c1-c1ccc(N(C)C(=O)CNC(=O)OC(C)(C)C)cc1)OCO2 | 63.2 | 39.6 | – |
| COC(=O)c1cc2c(c(OC)c1-c1ccc(N(C)S(=O)(=O)c3ccc([N+](=O)[O-])cc3)cc1)OCO2 | 69.3 | 34.2 | – |
| COC(=O)c1cc2c(c(OC)c1-c1ccc(N(C)C(=O)[C@H](C)N)cc1)OCO2 | 74.2 | 64.7 | – |
